Laboratory results: the supplement of paper PMC11061612

What was measured:
Olaparib = compound: O=C(c1cc(Cc2n[nH]c(=O)c3ccccc23)ccc1F)N1CCN(C(=O)C2CC2)CC1 [Olaparib]; conditions: max 10 µM
How it was run: (§1)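 Following 24 hours at 37°C and 5% CO2, cancer cell lines in 1536-well plates with 7.5 μl DMEM/F12 or RPMI and 10% FBS were dosed for 72 hours, final DMSO typically being 0.2%. CellTiter-Glo 2.0 luminescence, scaled between blank-well and DMSO-well means, gave the viability readout. Dose responses were fitted to a two-parameter logistic curve with a non-linear mixed effects model, and the single-agent IC50 was derived from this fit.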

Selumetinib = compound: Cn1cnc2c(F)c(Nc3ccc(Br)cc3Cl)c(C(=O)NOCCO)cc21 [Selumetinib]; conditions: max 10 µM
How it was run: as §1

AZD2811 = compound: CCN(CCO)CCCOc1ccc2c(Nc3cc(CC(=O)Nc4cccc(F)c4)[nH]n3)ncnc2c1 [AZD2811]; conditions: max 1 µM
How it was run: as §1

SG3199 = compound: CC1=CN2[C@@H](C1)C=NC3=CC(=C(C=C3C2=O)OC)OCCCCCOC4=C(C=C5C(=C4)N=C[C@@H]6CC(=CN6C5=O)C)OC [SG3199]; conditions: max 0.001 µM
How it was run: as §1

Trametinib = compound: CC(=O)Nc1cccc(-n2c(=O)n(C3CC3)c(=O)c3c(Nc4ccc(I)cc4F)n(C)c(=O)c(C)c32)c1 [Trametinib]; conditions: max 1 µM
How it was run: as §1

Palbociclib = compound: CC(=O)c1c(C)c2cnc(Nc3ccc(N4CCNCC4)cn3)nc2n(C2CCCC2)c1=O [Palbociclib]; conditions: max 10 µM
How it was run: as §1

Doxorubicin = compound: COc1cccc2c1C(=O)c1c(O)c3c(c(O)c1C2=O)C[C@@](O)(C(=O)CO)C[C@@H]3O[C@H]1C[C@H](N)[C@H](O)[C@H](C)O1 [Doxorubicin]; conditions: max 1 µM
How it was run: as §1

Taselisib = compound: Cc1nc(-c2cn3c(n2)-c2ccc(-c4cnn(C(C)(C)C(N)=O)c4)cc2OCC3)n(C(C)C)n1 [Taselisib]; conditions: max 10 µM
How it was run: as §1

AZD6738 = compound: C[C@@H]1COCCN1C2=NC(=NC(=C2)C3(CC3)[S@](=N)(=O)C)C4=C5C=CNC5=NC=C4 [AZD6738]; conditions: max 10 µM
How it was run: as §1

AZD0156 = compound: CN(C)CCCOc1ccc(-c2ccc3ncc4c(c3c2)n(C2CCOCC2)c(=O)n4C)cn1 [AZD0156]; conditions: max 3 µM
How it was run: as §1

Prexasertib = compound: COc1cccc(OCCCN)c1-c1cc(Nc2cnc(C#N)cn2)n[nH]1 [Prexasertib]; conditions: max 1 µM
How it was run: as §1

Venetoclax = compound: CC1(C)CCC(CN2CCN(c3ccc(C(=O)NS(=O)(=O)c4ccc(NCC5CCOCC5)c([N+](=O)[O-])c4)c(Oc4cnc5[nH]ccc5c4)c3)CC2)=C(c2ccc(Cl)cc2)C1 [Venetoclax]; conditions: max 1 µM
How it was run: as §1

AZD4320 = compound: CN(CC[C@H](CSC1=CC=CC=C1)NC2=C(C=C(C=C2)S(=O)(=O)NC(=O)C3=CC=C(C=C3)N4CCC(CC4)[C@H](C5=CC=CC=C5C6=CC=C(C=C6)Cl)O)S(=O)(=O)C(F)(F)F)CCO [AZD4320]; conditions: max 1 µM
How it was run: as §1

AZD5991 = compound: Cc1c2c(nn1C)CSCc1cc(n(C)n1)CSc1cc(c3ccccc3c1)OCCCc1c(C(=O)O)n(C)c3c-2c(Cl)ccc13 [AZD5991]; conditions: max 1 µM
How it was run: as §1

SN-38 = compound: CCc1c2c(nc3ccc(O)cc13)-c1cc3c(c(=O)n1C2)COC(=O)[C@]3(O)CC [SN-38]; conditions: max 0.3 µM
How it was run: as §1

AZD1775 = compound: C=CCn1c(=O)c2cnc(Nc3ccc(N4CCN(C)CC4)cc3)nc2n1-c1cccc(C(C)(C)O)n1 [AZD1775]; conditions: max 3 µM
How it was run: as §1

Dasatinib = compound: CC1=C(C(=CC=C1)Cl)NC(=O)C2=CN=C(S2)NC3=CC(=NC(=N3)C)N4CCN(CC4)CCO [Dasatinib]; conditions: max 2 µM
How it was run: as §1

Alisertib = compound: COc1cc(Nc2ncc3c(n2)-c2ccc(Cl)cc2C(c2c(F)cccc2OC)=NC3)ccc1C(=O)O [Alisertib]; conditions: max 10 µM
How it was run: as §1

AZD1390 = compound: CC(C)n1c(=O)n(C)c2cnc3cc(F)c(-c4ccc(OCCCN5CCCCC5)nc4)cc3c21 [AZD1390]; conditions: max 0.3 µM
How it was run: as §1

Crizotinib = compound: C[C@@H](Oc1cc(-c2cnn(C3CCNCC3)c2)cnc1N)c1c(Cl)ccc(F)c1Cl [Crizotinib]; conditions: max 10 µM
How it was run: as §1

AZD5153 = compound: COc1nnc2ccc(N3CCC(c4ccc(OCCN5CCN(C)C(=O)[C@H]5C)cc4)CC3)nn12 [AZD5153]; conditions: max 1 µM
How it was run: as §1

Capivasertib = compound: C1CN(CCC1(C(=O)N[C@@H](CCO)C2=CC=C(C=C2)Cl)N)C3=NC=NC4=C3C=CN4 [Capivasertib]; conditions: max 10 µM
How it was run: as §1

Savolitinib = compound: C[C@@H](c1ccc2nccn2c1)n1nnc2ncc(-c3cnn(C)c3)nc21 [Savolitinib]; conditions: max 1 µM
How it was run: as §1

AZD7648 = compound: Cc1cc2ncnn2cc1Nc1ncc2c(n1)n(C1CCOCC1)c(=O)n2C [AZD7648]; conditions: max 10 µM
How it was run: as §1

AZD8186 = compound: C[C@@H](Nc1cc(F)cc(F)c1)c1cc(C(=O)N(C)C)cc2c(=O)cc(N3CCOCC3)oc12 [AZD8186]; conditions: max 3 µM
How it was run: as §1

Gefitinib = compound: COc1cc2ncnc(Nc3ccc(F)c(Cl)c3)c2cc1OCCCN1CCOCC1 [Gefitinib]; conditions: max 10 µM
How it was run: as §1

Lapatinib = compound: CS(=O)(=O)CCNCc1ccc(-c2ccc3ncnc(Nc4ccc(OCc5cccc(F)c5)c(Cl)c4)c3c2)o1 [Lapatinib]; conditions: max 10 µM
How it was run: as §1

MK-2206 = compound: NC1(c2ccc(-c3nc4ccn5c(=O)[nH]nc5c4cc3-c3ccccc3)cc2)CCC1 [MK-2206]; conditions: max 10 µM
How it was run: as §1

Row | Cell Line | IC50, cell viability 72 h (Olaparib) | IC50, cell viability 72 h (Selumetinib) | IC50, cell viability 72 h (AZD2811) | IC50, cell viability 72 h (SG3199) | IC50, cell viability 72 h (Trametinib) | IC50, cell viability 72 h (Palbociclib) | IC50, cell viability 72 h (Doxorubicin) | IC50, cell viability 72 h (Taselisib) | IC50, cell viability 72 h (AZD6738) | IC50, cell viability 72 h (AZD0156) | IC50, cell viability 72 h (Prexasertib) | IC50, cell viability 72 h (Venetoclax) | IC50, cell viability 72 h (AZD4320) | IC50, cell viability 72 h (AZD5991) | IC50, cell viability 72 h (SN-38) | IC50, cell viability 72 h (AZD1775) | IC50, cell viability 72 h (Dasatinib) | IC50, cell viability 72 h (Alisertib) | IC50, cell viability 72 h (AZD1390) | IC50, cell viability 72 h (Crizotinib) | IC50, cell viability 72 h (AZD5153) | IC50, cell viability 72 h (Capivasertib) | IC50, cell viability 72 h (Savolitinib) | IC50, cell viability 72 h (AZD7648) | IC50, cell viability 72 h (AZD8186) | IC50, cell viability 72 h (Gefitinib) | IC50, cell viability 72 h (Lapatinib) | IC50, cell viability 72 h (MK-2206)
1 | LNCaP-Clone-FGC (Prostate Carcinoma) | > 10 µM | > 10 µM | > 1 µM | > 0.001 µM | > 1 µM | > 10 µM | 0.17 µM | 0.957 µM | 3.58 µM | > 3 µM | 0.0356 µM | > 1 µM | > 1 µM | > 1 µM | 0.0308 µM | 0.811 µM | > 2 µM | > 10 µM | > 0.3 µM | 8.7 µM | 0.0944 µM | 0.134 µM | > 1 µM | > 10 µM | 0.129 µM | > 10 µM | > 10 µM | –
2 | LU-135 (Small Cell Lung Carcinoma) | > 10 µM | > 10 µM | 0.0257 µM | > 0.001 µM | > 1 µM | > 10 µM | 0.214 µM | > 10 µM | 6.1 µM | > 3 µM | 0.343 µM | > 1 µM | 0.0176 µM | > 1 µM | 0.0279 µM | 1.84 µM | > 2 µM | 0.317 µM | > 0.3 µM | 2.59 µM | 0.0661 µM | > 10 µM | > 1 µM | > 10 µM | > 3 µM | > 10 µM | 9.73 µM | –
3 | MDA-MB-361 (Breast Carcinoma) | > 10 µM | > 10 µM | > 1 µM | > 0.001 µM | > 1 µM | > 10 µM | > 1 µM | 0.103 µM | 2.18 µM | > 3 µM | 0.00652 µM | > 1 µM | > 1 µM | 0.579 µM | 0.275 µM | 0.515 µM | > 2 µM | > 10 µM | > 0.3 µM | > 10 µM | > 1 µM | 9.81 µM | > 1 µM | > 10 µM | > 3 µM | > 10 µM | > 10 µM | –
4 | MFE-296 (Endometrial Carcinoma) | > 10 µM | > 10 µM | > 1 µM | > 0.001 µM | > 1 µM | > 10 µM | > 1 µM | > 10 µM | > 10 µM | > 3 µM | 0.385 µM | > 1 µM | > 1 µM | > 1 µM | 0.158 µM | > 3 µM | > 2 µM | > 10 µM | > 0.3 µM | > 10 µM | > 1 µM | > 10 µM | > 1 µM | > 10 µM | > 3 µM | > 10 µM | > 10 µM | > 10 µM
5 | NOS-1 (Osteosarcoma) | > 10 µM | > 10 µM | > 1 µM | > 0.001 µM | > 1 µM | > 10 µM | > 1 µM | 1.44 µM | 7.74 µM | > 3 µM | > 1 µM | > 1 µM | > 1 µM | 0.361 µM | > 0.3 µM | 0.757 µM | 0.192 µM | > 10 µM | > 0.3 µM | 7.98 µM | 0.119 µM | > 10 µM | > 1 µM | > 10 µM | > 3 µM | > 10 µM | > 10 µM | –
6 | OVCA420 (Ovarian Carcinoma) | > 10 µM | 7.91 µM | > 1 µM | > 0.001 µM | 0.156 µM | > 10 µM | > 1 µM | 0.989 µM | > 10 µM | > 3 µM | 0.178 µM | > 1 µM | > 1 µM | > 1 µM | > 0.3 µM | > 3 µM | 0.265 µM | > 10 µM | > 0.3 µM | > 10 µM | 0.126 µM | > 10 µM | > 1 µM | > 10 µM | > 3 µM | 4.45 µM | 1.33 µM | > 10 µM
7 | SK-ES-1 (Ewing's Sarcoma) | 2.61 µM | > 10 µM | 0.0179 µM | > 0.001 µM | > 1 µM | 2.39 µM | 0.0533 µM | 0.676 µM | 2.89 µM | > 3 µM | 0.028 µM | > 1 µM | 0.15 µM | 0.236 µM | 0.0016 µM | 0.618 µM | > 2 µM | 0.0941 µM | > 0.3 µM | 1.41 µM | 0.296 µM | > 10 µM | > 1 µM | > 10 µM | > 3 µM | > 10 µM | > 10 µM | –
8 | TCCSUP (Bladder Carcinoma) | > 10 µM | > 10 µM | > 1 µM | > 0.001 µM | > 1 µM | > 10 µM | > 1 µM | > 10 µM | 8.38 µM | > 3 µM | 0.165 µM | > 1 µM | > 1 µM | > 1 µM | 0.201 µM | 2.31 µM | > 2 µM | > 10 µM | > 0.3 µM | > 10 µM | > 1 µM | > 10 µM | > 1 µM | > 10 µM | > 3 µM | > 10 µM | > 10 µM | –
